{"source": "patent US20150018384A1", "about": "“TREATMENT FOR HIGH CHOLESTEROL” (FibroGen, Inc., priority 2012, published 2015)", "key": {"[1]": {"tested_on": "genes involved in cholesterol biosynthesis in DIO mice liver", "experiment": "Microarray expression of cholesterol biosynthesis genes in liver of DIO mice", "type": "in vivo, mouse", "conditions": "60 mg/kg three times a week, 4 weeks of dosing, relative to vehicle treated mice", "protocol": "(§1) A number of PHI compounds were evaluated for their effect on the expression of cholesterol biosynthesis genes in mouse liver. […] Liver tissue was harvested and stored in RNALater (Life Technologies). Total RNA was isolated with Trizol (Life Technologies) and purified with RNEasy96 (Qiagen) according to the manufacturers' protocols. RNA concentration was measured by NanoDrop (Thermo), and quality was assessed by Bioanalyzer (Agilent).\n(§2) Biotinylated microarray probe was prepared using the 3′IVT Express kit (Affymetrix) and hybridized to mouse 430A 2.0 arrays as recommended in the manufacturer's protocol. Arrays were stained, washed, and scanned using Affymetrix equipment and software. Three arrays were run for each treatment and time point, each representing the liver sample from one individual animal.\n(§3) For microarray analysis, RNA from animals in each treatment group was pooled in pairs (n=3 pairs for 4 h vehicle, n=2 pairs for all other treatment groups, for a total of 13 arrays per compound study). This approach was used to improve the signal-to-noise ratio on microarrays. Biotinylated probe was prepared using the One-Cycle cDNA synthesis kit (Affymetrix) and hybridized to mouse 430A 2.0 arrays as recommended in the manufacturer's protocol. Arrays were stained, washed, and scanned using Affymetrix equipment and software.\n(§4) Array quality was assessed with GeneChip Operating System and/or Command Console software (Affymetrix). CEL files were uploaded to GeneSpring 7.3.1 (Agilent) using GC-RMA baseline correction. Principal Components Analysis was used to identify and reject outlier arrays. Data are reported as fold-change compared to timepoint-matched vehicle controls from the same study. Values less than 1.0 indicate a reduction of RNA in the treated animal liver tissue.\nLiver tissue was collected as described in Example 6 from DIO mice at the end of the study (4 weeks of dosing) described in Example 12. RNA isolation and microarray analysis were carried out as described in Example 6. The expression of 16 genes involved in cholesterol biosynthesis in mice treated with Compound B, Compound E, or Compound D, relative to that in the vehicle treated mice, is shown in Table 7."}, "[2]": {"tested_on": "Cholesterol Biosynthesis Genes in the Mouse Liver", "experiment": "Microarray expression of cholesterol biosynthesis genes in mouse liver", "type": "in vivo", "conditions": "10 mg/kg oral", "protocol": "as §1, §2\nAnimals were sacrificed 4 h or 8 h later. Each compound was tested in a separate animal study with separate controls. Liver tissue was harvested and stored in RNALater (Life Technologies). Total RNA was isolated with Trizol (Life Technologies) and purified with RNEasy96 (Qiagen) according to the manufacturers' protocols. RNA concentration was measured by NanoDrop (Thermo), and quality was assessed by Bioanalyzer (Agilent).\nas §3, §4"}, "[3]": {"tested_on": "subjects with end stage renal disease (ESRD)", "experiment": "ESRD subjects switched from epoetin alfa to Compound A or continued on epoetin alfa", "type": "in vivo, human"}, "[4]": {"tested_on": "subjects with end stage renal disease (ESRD)", "experiment": "ESRD subjects switched from epoetin alfa to Compound A or continued on epoetin alfa", "type": "in vivo, human", "conditions": "six weeks", "protocol": "Mean total cholesterol change for the Compound A-treated subjects (all cohorts) was a decrease of 15 mg/dL compared to an increase of 18 mg/dL for the epoetin alfa treated subjects."}, "[5]": {"tested_on": "subjects with end-stage renal disease (ESRD) receiving maintenance hemodialysis", "experiment": "Study 2: phase 2 study of compound A vs EPO in ESRD subjects on maintenance hemodialysis", "type": "in vivo, human", "conditions": "treated for 19 weeks, FIG. 2", "experimental": "Total cholesterol and lipid panels were measured by standard procedures.\nTotal cholesterol was measured from all subjects in Study 1 or Study 2 as part of the chemistry panel at prespecified time points.\nFrozen serum samples, collected from subjects in Study 1 or Study 2, were selected for the lipid panel analysis based on the following criteria: 1) with matched baseline (D1W1) and; 2) at least one other time point. The complete lipid panel includes: total cholesterol (TC), HDL, LDL-measured, Triglycerides and VLDL (Calculated). Ratio of HDL/LDL or LDL/HDL were analyzed.\nA total of n=20 subjects were selected and assayed for the complete lipid panel as described above. Subjects on this study protocol were not required to fast nor have any diet restrictions."}, "[6]": {"conditions": "baseline, Compound A 3 cohorts n=74, Epoetin alfa n=22"}}, "data": [{"molecule": "N#Cc1nc(C(=O)NCC(=O)O)c(O)c2c(Oc3ccccc3)cccc12", "note": "[Compound E, [(1-Cyano-4-hydroxy-5-phenoxy-isoquinoline-3-carbonyl)-amino]-acetic acid]", "values": [{"measurement": "3-hydroxy-3-methylglutaryl-Coenzyme A reductase (Hmgcr) expression", "setting": "[1]", "result": 0.36}, {"measurement": "3-hydroxy-3-methylglutaryl-Coenzyme A synthase 1 (Hmgcs1) expression", "setting": "[1]", "result": 0.33}, {"measurement": "7-dehydrocholesterol reductase (Dhcr7) expression", "setting": "[1]", "result": 0.52}, {"measurement": "NAD(P) dependent steroid dehydrogenase-like (Nsdhl) expression", "setting": "[1]", "result": 0.77}, {"measurement": "acetyl-Coenzyme A acetyltransferase 2 (Acat2) expression", "setting": "[1]", "result": 0.69}, {"measurement": "cytochrome P450, family 51 (Cyp51) expression", "setting": "[1]", "result": 0.26}, {"measurement": "farnesyl diphosphate farnesyl transferase 1 (Fdft1) expression", "setting": "[1]", "result": 0.40}, {"measurement": "farnesyl diphosphate synthetase (Fdps) expression", "setting": "[1]", "result": 0.57}, {"measurement": "isopentenyl-diphosphate delta isomerase (Idi1) expression", "setting": "[1]", "result": 0.42}, {"measurement": "lanosterol synthase (Lss) expression", "setting": "[1]", "result": 0.45}, {"measurement": "mevalonate (diphospho) decarboxylase (Mvd) expression", "setting": "[1]", "result": 0.34}, {"measurement": "mevalonate kinase (Mvk) expression", "setting": "[1]", "result": 0.58}, {"measurement": "phosphomevalonate kinase (Pmvk) expression", "setting": "[1]", "result": 0.74}, {"measurement": "squalene epoxidase (Sqle) expression", "setting": "[1]", "result": 0.52}, {"measurement": "sterol-C4-methyl oxidase-like (Sc4mol) expression", "setting": "[1]", "result": 0.27}, {"measurement": "sterol-C5-desaturase (fungal ERG3, delta-5-desaturase) homolog (S. cerevisae) (Sc5d) expression", "setting": "[1]", "result": 0.34}]}, {"molecule": "COc1ccc(Cn2cc(Br)c3c(O)c(C(=O)NCC(=O)O)nc(C#N)c32)cc1", "note": "[Compound K, {[3-Bromo-7-cyano-4-hydroxy-1-(4-methoxy-benzyl)-1H-pyrrolo[2,3-c]pyridine-5-carbonyl]-amino}-acetic acid]", "values": [{"measurement": "3-hydroxy-3-methylglutaryl-Coenzyme A reductase (Hmgcr) RNA expression", "setting": "[2]; 4 h", "result": 0.40, "unit": "fold-change"}, {"measurement": "3-hydroxy-3-methylglutaryl-Coenzyme A synthase 1 (Hmgcs1) RNA expression", "setting": "[2]; 4 h", "result": 0.74, "unit": "fold-change"}, {"measurement": "7-dehydrocholesterol reductase (Dhcr7) RNA expression", "setting": "[2]; 4 h", "result": 1.13, "unit": "fold-change"}, {"measurement": "NAD(P) dependent steroid dehydrogenase-like (Nsdhl) RNA expression", "setting": "[2]; 4 h", "result": 1.05, "unit": "fold-change"}, {"measurement": "acetyl-Coenzyme A acetyltransferase 2 (Acat2) RNA expression", "setting": "[2]; 4 h", "result": 0.94, "unit": "fold-change"}, {"measurement": "cytochrome P450, family 51 (Cyp51) RNA expression", "setting": "[2]; 4 h", "result": 0.81, "unit": "fold-change"}, {"measurement": "farnesyl diphosphate farnesyl transferase 1 (Fdft1) RNA expression", "setting": "[2]; 4 h", "result": 0.78, "unit": "fold-change"}, {"measurement": "farnesyl diphosphate synthetase (Fdps) RNA expression", "setting": "[2]; 4 h", "result": 1.01, "unit": "fold-change"}, {"measurement": "isopentenyl-diphosphate delta isomerase (Idi1) RNA expression", "setting": "[2]; 4 h", "result": 0.88, "unit": "fold-change"}, {"measurement": "lanosterol synthase (Lss) RNA expression", "setting": "[2]; 4 h", "result": 0.88, "unit": "fold-change"}, {"measurement": "mevalonate (diphospho) decarboxylase (Mvd) RNA expression", "setting": "[2]; 4 h", "result": 0.68, "unit": "fold-change"}, {"measurement": "mevalonate kinase (Mvk) RNA expression", "setting": "[2]; 4 h", "result": 0.92, "unit": "fold-change"}, {"measurement": "phosphomevalonate kinase (Pmvk) RNA expression", "setting": "[2]; 4 h", "result": 0.88, "unit": "fold-change"}, {"measurement": "squalene epoxidase (Sqle) RNA expression", "setting": "[2]; 4 h", "result": 1.46, "unit": "fold-change"}, {"measurement": "sterol-C4-methyl oxidase-like (Sc4mol) RNA expression", "setting": "[2]; 4 h", "result": 0.65, "unit": "fold-change"}, {"measurement": "sterol-C5-desaturase (fungal ERG3, delta-5-desaturase) homolog (S. cerevisae) (Sc5d) RNA expression", "setting": "[2]; 4 h", "result": 0.92, "unit": "fold-change"}, {"measurement": "3-hydroxy-3-methylglutaryl-Coenzyme A reductase (Hmgcr) RNA expression", "setting": "[2]; 8 h", "result": 0.11, "unit": "fold-change"}, {"measurement": "3-hydroxy-3-methylglutaryl-Coenzyme A synthase 1 (Hmgcs1) RNA expression", "setting": "[2]; 8 h", "result": 0.30, "unit": "fold-change"}, {"measurement": "7-dehydrocholesterol reductase (Dhcr7) RNA expression", "setting": "[2]; 8 h", "result": 0.61, "unit": "fold-change"}, {"measurement": "NAD(P) dependent steroid dehydrogenase-like (Nsdhl) RNA expression", "setting": "[2]; 8 h", "result": 0.56, "unit": "fold-change"}, {"measurement": "acetyl-Coenzyme A acetyltransferase 2 (Acat2) RNA expression", "setting": "[2]; 8 h", "result": 0.63, "unit": "fold-change"}, {"measurement": "cytochrome P450, family 51 (Cyp51) RNA expression", "setting": "[2]; 8 h", "result": 0.32, "unit": "fold-change"}, {"measurement": "farnesyl diphosphate farnesyl transferase 1 (Fdft1) RNA expression", "setting": "[2]; 8 h", "result": 0.39, "unit": "fold-change"}, {"measurement": "farnesyl diphosphate synthetase (Fdps) RNA expression", "setting": "[2]; 8 h", "result": 0.37, "unit": "fold-change"}, {"measurement": "isopentenyl-diphosphate delta isomerase (Idi1) RNA expression", "setting": "[2]; 8 h", "result": 0.34, "unit": "fold-change"}, {"measurement": "lanosterol synthase (Lss) RNA expression", "setting": "[2]; 8 h", "result": 0.38, "unit": "fold-change"}, {"measurement": "mevalonate (diphospho) decarboxylase (Mvd) RNA expression", "setting": "[2]; 8 h", "result": 0.20, "unit": "fold-change"}, {"measurement": "mevalonate kinase (Mvk) RNA expression", "setting": "[2]; 8 h", "result": 0.49, "unit": "fold-change"}, {"measurement": "phosphomevalonate kinase (Pmvk) RNA expression", "setting": "[2]; 8 h", "result": 0.96, "unit": "fold-change"}, {"measurement": "squalene epoxidase (Sqle) RNA expression", "setting": "[2]; 8 h", "result": 0.39, "unit": "fold-change"}, {"measurement": "sterol-C4-methyl oxidase-like (Sc4mol) RNA expression", "setting": "[2]; 8 h", "result": 0.21, "unit": "fold-change"}, {"measurement": "sterol-C5-desaturase (fungal ERG3, delta-5-desaturase) homolog (S. cerevisae) (Sc5d) RNA expression", "setting": "[2]; 8 h", "result": 0.24, "unit": "fold-change"}]}, {"molecule": "Epoetin alfa [reference compound]", "values": [{"measurement": "LDL cholesterol change", "setting": "[3]; Mean (±SD), six weeks, Compound A orally three times a week (n=74) or continued epoetin alfa (n=22)", "result": "+5 (14) mg/dL"}, {"measurement": "Mean BL LDL Cholesterol", "setting": "[3]; [6]", "result": 90.75, "unit": "mg/dL"}, {"measurement": "Mean BL Total Cholesterol", "setting": "[3]; [6]", "result": 158.41, "unit": "mg/dL"}, {"measurement": "mean total cholesterol over the course of treatment", "setting": "[3]; both groups stratified by BL total cholesterol ≦200 or >200 mg/dL, FIG. 16", "result": "increase"}, {"measurement": "HDL-C", "setting": "[3]; six weeks", "result": "did not change significantly"}, {"measurement": "Mean change in LDL-C, increase", "setting": "[3]; six weeks", "result": 5, "unit": "mg/dL"}, {"measurement": "mean LDL-C over the course of treatment", "setting": "[3]; subjects with the higher BL total cholesterol (n=2), FIG. 17", "result": "slight decrease"}, {"measurement": "mean LDL-C over the course of treatment", "setting": "[3]; subjects with the lower BL total cholesterol (n=20)", "result": "increase"}, {"measurement": "Total Cholesterol change", "setting": "[4]; Mean (±SD), Compound A orally three times a week (n=74) or continued epoetin alfa (n=22)", "result": "+18 (22) mg/dL"}, {"measurement": "Mean total cholesterol change, increase", "setting": "[4]", "result": 18, "unit": "mg/dL"}, {"measurement": "change in total cholesterol from baseline over time", "setting": "[5]", "result": "No reduction of total cholesterol"}]}]}
